{"source": "patent US11701364B2", "about": "“Agonists of stimulator of interferon genes sting” (The Scripps Research Institute, priority 2018, dated 2023)", "target": "T1, STING (Stimulator of Interferon Genes) (Homo sapiens, UniProt Q86WV6, G230A/H232R/R293Q/R71H)", "T1 construct": "host or cells: THP-1-Lucia ISG cells (human monocytic line)", "T1 sequence (Q86WV6 whole entry R71H/G230A/H232R/R293Q)": "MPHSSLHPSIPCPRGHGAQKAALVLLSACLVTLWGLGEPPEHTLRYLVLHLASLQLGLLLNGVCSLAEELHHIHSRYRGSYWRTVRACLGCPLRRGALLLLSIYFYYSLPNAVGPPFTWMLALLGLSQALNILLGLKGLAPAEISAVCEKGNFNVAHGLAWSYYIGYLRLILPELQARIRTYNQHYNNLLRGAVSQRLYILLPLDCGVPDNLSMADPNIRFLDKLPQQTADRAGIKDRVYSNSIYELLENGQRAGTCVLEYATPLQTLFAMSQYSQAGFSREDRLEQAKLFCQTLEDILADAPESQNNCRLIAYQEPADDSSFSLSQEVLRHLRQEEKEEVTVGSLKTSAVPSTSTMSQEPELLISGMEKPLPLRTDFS", "experiment": "ISG-LUC activation assay (ISRE-Luciferase assay in THP-1 Lucia ISG reporter cells)", "type": "cell-based", "conditions": "THP-1 Lucia ISG cells, 24 hours, luciferase reporter; read-out: ISG-LUC activation assay (EC50)", "source_text": "This has been established using a primary assay involving a human THP-1 cell line carrying an IRF-inducible reporter with 5 copies of the IFN signaling response element. Counter screens, involving alternative reporter constructs, rodent cell-based assays, as well as cGAS and STING knock-out cell lines, are used to eliminate luciferase artifacts and ensure human-rodent cross species reactivity, as well as pathway selectivity. Biochemical assays, involving cGAS enzymatic activity and STING protein binding assays, are used to identify the specific target of identified hits.\nTHP-1 Lucia ISG cells were resuspended in low-serum growth media (2% FBS) at a density of 5×10^5 cells/ml and treated with test article or vehicle (DMSO). 50 μL of cells were seeded into each well of a 384-well white greiner plates and incubated for 24 hours. To evaluate expression of the luciferase reporter, 30 μl of Quanti-luc (Invivogen) detection reagent was added to each well and luminescence was read using an Envision plate reader (Perkin Elmer) set with an integration time of 0.1 seconds.", "data": [{"smiles": "O=C(Nc1cc(C(F)(F)F)ccc1C(=O)O)c1ccc(-n2ccnc2)nn1", "note": "[Compound 86]", "values": [{"measurement": "EC50", "value": 10300, "unit": "nM"}]}, {"smiles": "Cc1ccc(NC(=O)c2ccc(-n3ccnc3)nn2)c(C(O)(C(F)(F)F)C(F)(F)F)c1", "note": "[Compound 115]", "values": [{"measurement": "EC50", "value": 7360, "unit": "nM"}]}, {"smiles": "COC(=O)c1nc(C2CC2)c(F)cc1NC(=O)c1ccc(-n2ccnc2)nn1", "note": "[Compound 145]", "values": [{"measurement": "EC50", "value": 1580, "unit": "nM"}]}, {"smiles": "O=C(Nc1ccc(C2CC2)cc1C(=O)O)c1ccc(-n2ccnc2)nn1", "note": "[Compound 85]", "values": [{"measurement": "EC50", "value": "~16600", "unit": "nM"}]}, {"smiles": "COc1cc(NC(=O)c2ccc(-n3ccnc3)nn2)c(C(=O)O)cc1F", "note": "[Compound 54]", "values": [{"measurement": "EC50", "value": 248, "unit": "nM"}]}, {"smiles": "COC(=O)c1cc(C)c(F)cc1NC(=O)c1ccc(-n2ccnc2)nn1", "note": "[Compound 50]", "values": [{"measurement": "EC50", "value": 145, "unit": "nM"}]}, {"smiles": "N#Cc1ccc(C(=O)O)c(NC(=O)c2ccc(-n3ccnc3)nn2)c1", "note": "[Compound 165]", "values": [{"measurement": "EC50", "value": 4090, "unit": "nM"}]}, {"smiles": "COC(=O)c1cc(C)ccc1NC(=O)c1ccc(-n2ccnc2)nn1", "note": "[Compound 104]", "values": [{"measurement": "EC50", "value": 426, "unit": "nM"}]}, {"smiles": "O=c1oc(-c2ccc(-n3ccnc3)nn2)nc2ccc(C(F)(F)F)nc12", "note": "[Compound 140]", "values": [{"measurement": "EC50", "value": "~25100", "unit": "nM"}]}, {"smiles": "CCOC(=O)C1=C(NC(=O)c2ccc(-n3ccnc3)nn2)CCC(C)C1", "note": "(centres unmarked) [Compound 67]", "values": [{"measurement": "EC50", "value": 2950, "unit": "nM"}]}, {"smiles": "COCC(=O)c1nc(Cl)ncc1NC(=O)c1ccc(-n2ccnc2)nn1", "note": "[Compound 75]", "values": [{"measurement": "EC50", "value": 1260, "unit": "nM"}]}, {"smiles": "CCc1ccc(NC(=O)c2ccc(-n3ccnc3)nn2)c(C(=O)O)c1", "note": "[Compound 79]", "values": [{"measurement": "EC50", "value": "> 20000", "unit": "nM"}]}, {"smiles": "Cc1cc2nc(-c3ccc(-n4ccnc4)nn3)oc(=O)c2cc1C", "note": "[Compound 9]", "values": [{"measurement": "EC50", "value": 163, "unit": "nM"}]}, {"smiles": "Cc1cc2c(=O)oc(-c3ccc(-n4ccnc4)nn3)nc2cc1F", "note": "[Compound 33]", "values": [{"measurement": "EC50", "value": "< 19.5", "unit": "nM"}]}, {"smiles": "O=c1oc(-c2ccc(-n3ccnc3)nn2)nc2ccc(F)c(F)c12", "note": "[Compound 132]", "values": [{"measurement": "EC50", "value": 4280, "unit": "nM"}]}, {"smiles": "O=C(Nc1cc(F)c(OC(F)(F)F)cc1C(=O)O)c1ccc(-n2ccnc2)nn1", "note": "[Compound 146]", "values": [{"measurement": "EC50", "value": 2180, "unit": "nM"}]}, {"smiles": "Cc1cc(C(=O)O)c(NC(=O)c2ccc(-n3ccnc3)nn2)cc1C(F)(F)F", "note": "[Compound 102]", "values": [{"measurement": "EC50", "value": 12100, "unit": "nM"}]}, {"smiles": "CCCc1ccc(NC(=O)c2ccc(-n3ccnc3)nn2)c(C(=O)O)c1", "note": "[Compound 171]", "values": [{"measurement": "EC50", "value": "> 20000", "unit": "nM"}]}, {"smiles": "COC(=O)c1cc(F)c(OC)cc1NC(=O)c1ccc(-n2ccnc2)nn1", "note": "[Compound 52]", "values": [{"measurement": "EC50", "value": 74.4, "unit": "nM"}]}, {"smiles": "O=c1oc(-c2ccc(-n3ccnc3)nn2)nc2cc(F)c(OC(F)(F)F)cc12", "note": "[Compound 42]", "values": [{"measurement": "EC50", "value": 373, "unit": "nM"}]}, {"smiles": "O=C(Nc1ccc(C(F)(F)F)cc1C(=O)O)c1ccc(-n2ccnc2)nn1", "note": "[Compound 90]", "values": [{"measurement": "EC50", "value": "> 20000", "unit": "nM"}]}, {"smiles": "COc1ccc2c(=O)oc(-c3ccc(-n4ccnc4)nn3)nc2c1", "note": "[Compound 38]", "values": [{"measurement": "EC50", "value": 485, "unit": "nM"}]}, {"smiles": "CCN(CC)CC(C)(C)NC(=O)c1cc(F)c(F)cc1NC(=O)c1ccc(-n2ccnc2)nn1", "note": "[Compound 163]", "values": [{"measurement": "EC50", "value": 16600, "unit": "nM"}]}, {"smiles": "CCOC(=O)c1cc[nH]c1NC(=O)c1ccc(-n2ccnc2)nn1", "note": "[Compound 110]", "values": [{"measurement": "EC50", "value": 16900, "unit": "nM"}]}, {"smiles": "COC(=O)c1ccc(C(F)(F)F)cc1NC(=O)c1ccc(-n2ccnc2)nn1", "note": "[Compound 27]", "values": [{"measurement": "EC50", "value": 136, "unit": "nM"}]}, {"smiles": "COC(=O)c1c(F)cccc1NC(=O)c1ccc(-n2ccnc2)nn1", "note": "[Compound 72]", "values": [{"measurement": "EC50", "value": 1670, "unit": "nM"}]}, {"smiles": "O=c1[nH]c(-c2ccc(-n3ccnc3)nn2)nc2cc(F)c(F)cc12", "note": "[Compound 126]", "values": [{"measurement": "EC50", "value": 1120, "unit": "nM"}]}, {"smiles": "COC(=O)c1ccc(C#N)cc1NC(=O)c1ccc(-n2ccnc2)nn1", "note": "[Compound 12]", "values": [{"measurement": "EC50", "value": 159, "unit": "nM"}]}, {"smiles": "Cc1ccc(C(=O)OC(C)C)c(NC(=O)c2ccc(-n3ccnc3)nn2)c1", "note": "[Compound 66]", "values": [{"measurement": "EC50", "value": 518, "unit": "nM"}]}, {"smiles": "COC(=O)c1ccncc1NC(=O)c1ccc(-n2ccnc2)nn1", "note": "[Compound 8]", "values": [{"measurement": "EC50", "value": 2570, "unit": "nM"}]}, {"smiles": "O=C(Nc1cc(F)c(F)cc1C(=O)NC1CCC(O)(C(F)(F)F)CC1)c1ccc(-n2ccnc2)nn1", "note": "(centres unmarked) [Compound 88]", "values": [{"measurement": "EC50", "value": 5240, "unit": "nM"}]}, {"smiles": "COC(=O)c1nc(OC)ncc1NC(=O)c1ccc(-n2ccnc2)nn1", "note": "[Compound 71]", "values": [{"measurement": "EC50", "value": 1660, "unit": "nM"}]}, {"smiles": "O=C(Nc1cc(Cl)c(Cl)cc1C(=O)O)c1ccc(-n2ccnc2)nn1", "note": "[Compound 103]", "values": [{"measurement": "EC50", "value": 451, "unit": "nM"}]}, {"smiles": "COC(=O)c1ccc(C(=O)OC)c(NC(=O)c2ccc(-n3ccnc3)nn2)c1", "note": "[Compound 159]", "values": [{"measurement": "EC50", "value": "> 20000", "unit": "nM"}]}, {"smiles": "COC(=O)c1cc(F)c(Br)cc1NC(=O)c1ccc(-n2ccnc2)nn1", "note": "[Compound 58]", "values": [{"measurement": "EC50", "value": 60.6, "unit": "nM"}]}]}
